Experimental findings from ChEMBL document CHEMBL3627686, “Discovery of the oxazabicyclo[3.3.1]nonane derivatives as potent and orally active GPR119 agonists” (Bioorg Med Chem Lett, 2015) are described below.

Data set [1] relates to Mus musculus. The experiment in a line: Decrease in blood glucose level in C57B1/6NCrl mouse at 3 mg/kg, po administered 30 mins prior to oral glucose challenge by glucose tolerance test. The data set is classed as functional, organism-based.
The target of data set [2] is T1, Glucose-dependent insulinotropic receptor (Homo sapiens) (UniProt Q8TDV5).
T1 sequence (whole entry): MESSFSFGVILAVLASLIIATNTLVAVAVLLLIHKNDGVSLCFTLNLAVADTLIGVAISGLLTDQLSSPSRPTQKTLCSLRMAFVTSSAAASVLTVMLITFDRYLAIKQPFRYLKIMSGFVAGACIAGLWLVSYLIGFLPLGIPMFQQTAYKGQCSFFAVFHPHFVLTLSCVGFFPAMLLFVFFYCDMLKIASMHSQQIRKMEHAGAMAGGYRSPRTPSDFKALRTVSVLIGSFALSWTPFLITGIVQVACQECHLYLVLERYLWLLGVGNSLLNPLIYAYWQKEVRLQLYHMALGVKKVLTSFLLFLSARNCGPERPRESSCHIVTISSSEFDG
Nature of the data set: (§1) Agonist activity at human GPR119 expressed in HEK293 cells assessed as cAMP accumulation after 30 mins by fluorescence analysis. The data set is classed as functional, cell-based. On the technique in general: Changes in cAMP serve as a functional read-out for many G protein-coupled receptors.

Data set [3] concerns the target T2, Glucose-dependent insulinotropic receptor (Mus musculus) (UniProt Q7TQP3).
T2 sequence (whole entry): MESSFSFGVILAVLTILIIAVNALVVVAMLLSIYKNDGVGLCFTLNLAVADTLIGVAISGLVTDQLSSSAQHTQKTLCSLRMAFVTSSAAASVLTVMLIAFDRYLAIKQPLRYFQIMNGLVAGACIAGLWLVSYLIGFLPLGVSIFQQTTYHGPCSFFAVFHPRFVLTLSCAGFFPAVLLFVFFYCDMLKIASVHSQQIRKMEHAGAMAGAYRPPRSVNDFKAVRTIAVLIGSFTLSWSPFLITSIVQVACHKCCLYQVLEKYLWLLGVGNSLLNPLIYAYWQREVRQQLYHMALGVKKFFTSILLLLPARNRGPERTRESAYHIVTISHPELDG
The experiment in a line: (§2) Agonist activity at mouse GPR119 expressed in HEK293 cells assessed as cAMP accumulation after 30 mins by fluorescence analysis. The data set is classed as functional, cell-based.

The target in data set [4] is T3, Glucose-dependent insulinotropic receptor (Homo sapiens, UniProt Q8TDV5).
T3 sequence (Q8TDV5 whole entry): T1 sequence (whole entry)
The data set is described as §1. In kind it is functional, cell-based.

For data set [5], the target named is T4, Glucose-dependent insulinotropic receptor (Mus musculus, UniProt Q7TQP3).
T4 sequence (Q7TQP3 whole entry): T2 sequence (whole entry)
Described as §2. The data set is classed as functional, cell-based.

Data set [6] can be described thus: AUC (0 to 6 hrs) in Sprague-Dawley rat plasma at 10 mg/kg, po. In kind it is ADME, organism-based. Set-up: time < 6 hr, dose 10 mg/kg, route oral.
Data set [7] has as its system Mus musculus. The experiment in a line: Decrease in blood glucose level in C57B1/6NCrl mouse at 3 mg/kg, po administered 30 mins prior to oral glucose challenge by glucose tolerance test relative to control. In kind it is functional.
Data set [8] is described as follows: Solubility of compound at pH 7.4. The data set is classed as physicochemical. Conditions: buffer.
In data set [9] the test system is Plasma. The experiment in a line: Fraction unbound in C57B1/6NCrl mouse plasma at 3 mg/kg, po after 1 hr. In kind it is ADME, organism-based. Conditions: in vivo.
The test system of data set [10] is Mus musculus. The experiment in a line: Decrease in blood glucose level in C57B1/6NCrl mouse at 0.1 mg/kg, po administered 30 mins prior to oral glucose challenge by glucose tolerance test relative to control. The data set is classed as functional.
Data set [11] concerns Plasma. Nature of the data set: Plasma concentration in C57B1/6NCrl mouse at 0.3 mg/kg, po. In kind it is ADME, organism-based. Conditions: in vivo.
The subject of data set [12] is Mus musculus. The experiment in a line: Decrease in blood glucose level in C57B1/6NCrl mouse drug administered 30 mins prior to oral glucose challenge by glucose tolerance test. The data set is classed as functional, organism-based.
The test system of data set [13] is Plasma. The experiment in a line: Plasma concentration in C57B1/6NCrl mouse at 0.1 mg/kg, po. The data set is classed as ADME, organism-based. Conditions: in vivo.
The test system of data set [14] is Plasma. The experiment in a line: Plasma concentration in C57B1/6NCrl mouse at 1 mg/kg, po. The note with it: in vivo. In kind it is ADME, organism-based.
In data set [15] the test system is Plasma. The experiment in a line: Plasma concentration in C57B1/6NCrl mouse at 3 mg/kg, po. In kind it is ADME, organism-based. The note with it: in vivo.

The structures appear in SMILES notation. Values after ≈ are worked out from the molar mass of the structure shown. Active and inactive are the calls of the source. The calls are words filed in the database; no cut-off is given here.

By EC50 is commonly meant the concentration giving half of the maximal effect. As usually defined, the AUC(0-t) is the area under the concentration-time curve up to a stated or last time point. A low value points to low exposure. The term inhibition in vivo denotes how much of the control response was suppressed. In general, solubility refers to the concentration that dissolves in the medium under given conditions. Lower therefore signals a poorly soluble substance.

On to `Cc1c(Nc2ccc(C#N)cc2Cl)ncnc1OC1CC2COCC(C1)N2C(=O)OC(C)(C)C` (stereo in doubt; 15) [listing 1 of 2 here], for which the outcome in the data set with Mus musculus [1] was inactive. Besides, the %max is 38% in [2] and 57% in [3].

With `Cc1ncccc1Nc1ncnc(OC2C3COCC2CN(C(=O)OC(C)C)C3)c1C` (stereo in doubt; 22), in data set [4], the EC50 was more than 10000 nM.

On to `Cc1c(Nc2ccc(C#N)cc2Cl)ncnc1OC1CC2COCC(C1)N2C(=O)OC(C)(C)C` (stereo in doubt; 14) [listing 1 of 2 here], for which the results for the EC50 in [4] and in data set [5] were 114 nM and 280 nM, respectively.

As for `Cc1c(Nc2ccc(C#N)cc2Cl)ncnc1OC1C2COCC1CN(S(=O)(=O)C1CC1)C2` (stereo in doubt; 18) [listing 1 of 2 here], in data set [4], the EC50 was 1210 nM.

As to `Cc1c(Nc2ccc(C#N)cc2Cl)ncnc1OC1C2COCC1CN(C(=O)OC(C)(C)C)C2` (stereo in doubt; 20) [listing 1 of 2 here], the figures for the %max in data set [2] and in data set [3] were 83% and 69%, respectively.

With `Cc1c(Nc2ccc(C#N)cc2Cl)ncnc1OC1CC2COCC(C1)N2C(=O)OC(C)(C)C` (stereo in doubt; 15) [listing 2 of 2 here], the figures for the EC50 in data set [4] and in data set [5] were 17 nM and 100 nM, respectively.

Regarding `Cc1c(Oc2ccc(C#N)cc2Cl)ncnc1OC1C2COCC1CN(C(=O)OC1(C)CC1)C2` (configuration not stated), the EC50 in data set [4] amounted to 16 nM; in data set [5], 128 nM. Besides, the %max in data set [2] is 78%; in data set [3], 143%. Moreover, the AUC(0-t) at 6 h in [6] is 1.49 µM·h. This compound also showed an inhibition in vivo at 3 mg/kg in the data set with Mus musculus [7] of 75%.

In the case of `Cc1c(Nc2ccc(S(C)(=O)=O)cc2F)ncnc1OC1CC2COCC(C1)N2C(=O)OC1(C)CC1` (configuration not stated), the EC50 in data set [4] was 70 nM; in data set [5], 511 nM. For the same compound, the %max in data set [2] stood at 87%; in data set [3], 79%. The same compound came in with a solubility in data set [8] of 3.4 µM (≈ 1.77 µg/mL). Besides, in the data set with Plasma [9], the “Cp(f)” value is recorded as 100 nM. The area under the curve AUC(0-t) at 6 h in [6] was 2.4 µM·h. In the data set on Mus musculus [7], this compound registered an inhibition in vivo at 3 mg/kg of 84%.

Take `Cc1ncccc1Nc1ncnc(OC2C3COCC2CN(C(=O)OC(C)C)C3)c1C` (stereo in doubt; 21) [listing 1 of 2 here]: the EC50 in [4] came out at 65 nM.

On to `Cc1c(Nc2ccc(C#N)cc2Cl)ncnc1OC1C2COCC1CN(C(=O)OC(C)(C)C)C2` (stereo in doubt; 19) [listing 1 of 2 here], for which the EC50 in data set [4] turned out to be 7 nM; in data set [5], 28 nM.

For `CC1(OC(=O)N2CC3COCC(C2)C3Oc2cc(Nc3ccc(C#N)cc3Cl)ncn2)CC1` (configuration not stated), the EC50 in data set [4] came out at 25 nM; in data set [5], 254 nM. Also, the %max is 88% in data set [2] and 105% in [3]. For the same compound, the AUC(0-t) at 6 h in data set [6] worked out at 1.19 µM·h. The compound further yielded an inhibition in vivo at 3 mg/kg with Mus musculus [7] of 78%.

Regarding `Cc1ncccc1Nc1ncnc(OC2C3COCC2CN(C(=O)OC(C)C)C3)c1C` (stereo in doubt; 21) [listing 2 of 2 here], the %max in [2] was 78%.

Regarding `Cc1c(Nc2ccc(C#N)cc2Cl)ncnc1OC1CC2COCC(C1)N2S(=O)(=O)C1CC1` (configuration not stated), the EC50 was determined as 268 nM in data set [4] and 1600 nM in data set [5]. Also, the %max in data set [2] worked out at 64%; in data set [3] it was 100%.

In the case of `Cc1c(Nc2ccc(C#N)cc2Cl)ncnc1OC1C2COCC1CN(S(=O)(=O)C1CC1)C2` (stereo in doubt; 18) [listing 2 of 2 here], the %max in data set [2] was determined as 52%.

Regarding `Cc1c(Nc2ccc(C#N)cc2Cl)ncnc1OC1C2COCC1CN(C(=O)OC(C)(C)C)C2` (stereo in doubt; 20) [listing 2 of 2 here], the figures for the EC50 in data set [4] and in [5] were 20 nM and 140 nM, respectively.

As to `COc1c(Nc2ccc(C#N)cc2Cl)ncnc1OC1C2COCC1CN(C(=O)OC1(C)CC1)C2` (configuration not stated), the inhibition in vivo at 0.1 mg/kg in the data set on Mus musculus [10] was 40%. For the same compound, the concentration in the data set on Plasma [11] was 90 nM; with Plasma [13], 20 nM; in the data set with Plasma [14], 220 nM; with Plasma [15], 350 nM. Also, the inhibition result in the data set on Mus musculus [12] was “Dose-dependent effect”. Further, the EC50 was 7 nM in data set [4] and 43 nM in data set [5]. In addition, the %max was 88% in data set [2] and 99% in data set [3]. For the same compound, in [8], the concentration in solution (solubility) was 30 µM (≈ 15 µg/mL). Also, the AUC(0-t) at 6 h in [6] came out at 8.23 µM·h. Moreover, the inhibition in vivo at 3 mg/kg with Mus musculus [7] is 78%.

On to `Cc1c(Nc2ccc(C#N)cc2Cl)ncnc1OC1C2COCC1CN(C(=O)OC1(C)CC1)C2` (configuration not stated), for which the EC50 in [4] was found to be 4 nM; in [5], 33 nM. Further, the %max came to 74% in [2] and 102% in [3]. The compound also displayed a solubility in data set [8] of 6 µM (≈ 2.9 µg/mL). In addition, the “Cp(f)” value with Plasma [9] is given as 3 nM. Moreover, the AUC(0-t) at 6 h in data set [6] stood at 4.98 µM·h. For the same compound, in the data set with Mus musculus [7], the inhibition in vivo at 3 mg/kg turned out to be 79%.

Turning to `COc1c(Nc2ccc(C#N)cc2F)ncnc1OC1C2COCC1CN(C(=O)OC1(C)CC1)C2` (configuration not stated), the figures for the EC50 in data set [4] and in data set [5] were 5 nM and 47 nM, respectively. Moreover, the %max worked out at 99% in data set [2] and 116% in data set [3]. The compound also gave an AUC(0-t) at 6 h in [6] of 1.43 µM·h. The same compound registered an inhibition in vivo at 3 mg/kg in the data set on Mus musculus [7] of 78%.

For the compound `Cc1c(Nc2ccc(C#N)cc2Cl)ncnc1OC1C2COCC1CN(S(=O)(=O)C1CC1)C2` (stereo in doubt; 17) [listing 1 of 2 here], the %max in [2] came out at 56%; in data set [3] it was 53%.

Take `Cc1c(Nc2ccc(C#N)cc2Cl)ncnc1OC1CC2COCC(C1)N2C(=O)OC(C)(C)C` (stereo in doubt; 14) [listing 2 of 2 here]: the %max turned out to be 54% in data set [2] and 34% in data set [3].

For the compound `Cc1c(Nc2ccc(S(C)(=O)=O)cc2Cl)ncnc1OC1CC2COCC(C1)N2C(=O)OC(C)(C)C` (configuration not stated), in the data set on Mus musculus [1], the result was Active. For the same compound, the figures for the EC50 in [4] and in [5] were 44 nM and 190 nM, respectively. In addition, the figures for the %max in data set [2] and in [3] were 49% and 78%, respectively.

As to `Cc1c(Nc2ccc(C#N)cc2Cl)ncnc1OC1C2COCC1CN(C(=O)OC(C)(C)C)C2` (stereo in doubt; 19) [listing 2 of 2 here], the %max in data set [2] amounted to 65%; in data set [3] it was 110%.

In the case of `Cc1c(Nc2ccc(C#N)cc2Cl)ncnc1OC1C2COCC1CN(S(=O)(=O)C1CC1)C2` (stereo in doubt; 17) [listing 2 of 2 here], the EC50 in [4] came out at 51 nM; in data set [5], 844 nM.
